The text below walks through data of PMC8550792, “Evolution of kinase polypharmacology across HSP90 drug discovery” (Cell Chemical Biology, 2021).

Assay in all cases: biochemical
Holding throughout (type): biochemical

For experiment [1], the target named is T1, 382 unique human kinases (Homo sapiens, UniProt Q96RR4).
T1 construct: purchased Reaction Biology (HotSpot contract assay)
The following applies: kinase CAMKK2, compound 10 uM; for remaining activity at 10 µM: read-out: % Enzyme Activity (relative to DMSO controls).

Experiment [2] addresses T2, 382 unique human kinases (Homo sapiens, UniProt Q9Y4K4).
T2 construct: purchased Reaction Biology (HotSpot contract assay)
The following applies: kinase KHS/MAP4K5, compound 10 uM; for remaining activity at 10 µM: read-out: % Enzyme Activity (relative to DMSO controls).

The target in experiment [3] is T3, 382 unique human kinases (Homo sapiens, UniProt P54646).
T3 construct: purchased Reaction Biology (HotSpot contract assay)
The following applies: for remaining activity at 10 µM: read-out: % Enzyme Activity (relative to DMSO controls).

Experiment [4] addresses T4, 382 unique human kinases (Homo sapiens, UniProt O75460).
T4 construct: purchased Reaction Biology (HotSpot contract assay)
The following applies: kinase ERN1/IRE1, compound 10 uM; for remaining activity at 10 µM: read-out: % Enzyme Activity (relative to DMSO controls).

Experiment [5] addresses T5, 382 unique human kinases (Homo sapiens, UniProt Q09013).
T5 construct: purchased Reaction Biology (HotSpot contract assay)
T5 sequence (Q09013 1-629): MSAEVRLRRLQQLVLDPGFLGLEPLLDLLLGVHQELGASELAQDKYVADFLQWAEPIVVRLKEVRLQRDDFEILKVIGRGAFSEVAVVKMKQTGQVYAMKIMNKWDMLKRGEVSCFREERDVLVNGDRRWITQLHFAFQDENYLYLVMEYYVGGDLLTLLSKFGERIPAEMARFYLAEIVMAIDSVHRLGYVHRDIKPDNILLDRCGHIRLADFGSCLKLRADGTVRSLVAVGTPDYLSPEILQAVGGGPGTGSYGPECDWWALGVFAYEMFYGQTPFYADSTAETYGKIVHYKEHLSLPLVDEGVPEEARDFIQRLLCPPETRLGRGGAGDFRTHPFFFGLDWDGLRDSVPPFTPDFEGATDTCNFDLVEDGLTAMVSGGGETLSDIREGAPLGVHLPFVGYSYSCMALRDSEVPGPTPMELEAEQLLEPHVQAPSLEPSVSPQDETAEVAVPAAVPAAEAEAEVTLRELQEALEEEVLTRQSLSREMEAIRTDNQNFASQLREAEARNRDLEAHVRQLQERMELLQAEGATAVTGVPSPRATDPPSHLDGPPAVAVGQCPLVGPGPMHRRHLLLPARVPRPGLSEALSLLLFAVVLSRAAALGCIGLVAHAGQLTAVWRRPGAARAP
The following applies: DMPK, 10 uM; for remaining activity at 10 µM: read-out: % Enzyme Activity (relative to DMSO controls).

Experiment [6] addresses T6, 382 unique human kinases (Homo sapiens, UniProt O14965).
T6 construct: purchased Reaction Biology (HotSpot contract assay)
T6 sequence (O14965 1-403): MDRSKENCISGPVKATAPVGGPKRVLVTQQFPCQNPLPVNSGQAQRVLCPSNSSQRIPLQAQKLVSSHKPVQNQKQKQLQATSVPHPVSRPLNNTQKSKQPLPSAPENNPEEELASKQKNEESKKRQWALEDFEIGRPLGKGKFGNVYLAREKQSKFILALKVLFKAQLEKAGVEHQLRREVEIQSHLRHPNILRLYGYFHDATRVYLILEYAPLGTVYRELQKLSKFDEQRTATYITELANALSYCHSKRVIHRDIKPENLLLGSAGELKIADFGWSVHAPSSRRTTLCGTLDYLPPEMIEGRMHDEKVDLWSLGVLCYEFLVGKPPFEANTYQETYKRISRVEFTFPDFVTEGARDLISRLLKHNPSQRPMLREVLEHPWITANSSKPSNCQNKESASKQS
The settings on record: Aurora A, [ATP] 2.5 µM, compound 10 uM; for remaining activity at 10 µM: read-out: % Enzyme Activity (relative to DMSO controls).

Experiment [7] concerns the target T7, 382 unique human kinases (Homo sapiens, UniProt Q9UM73, G1269A).
T7 construct: purchased Reaction Biology (HotSpot contract assay)
The following applies: ALK (G1269A), [ATP] 2.5 µM, compound 10 uM; for remaining activity at 10 µM: read-out: % Enzyme Activity (relative to DMSO controls).

Experiment [8] concerns the target T8, 382 unique human kinases (Homo sapiens, UniProt Q8N568).
T8 construct: purchased Reaction Biology (HotSpot contract assay)
The settings on record: DCAMKL2, 10 uM; for remaining activity at 10 µM: read-out: % Enzyme Activity (relative to DMSO controls).

The target in experiment [9] is T9, 382 unique human kinases (Homo sapiens, UniProt P04629).
T9 construct: purchased Reaction Biology (HotSpot contract assay)
T9 sequence (P04629 33-796): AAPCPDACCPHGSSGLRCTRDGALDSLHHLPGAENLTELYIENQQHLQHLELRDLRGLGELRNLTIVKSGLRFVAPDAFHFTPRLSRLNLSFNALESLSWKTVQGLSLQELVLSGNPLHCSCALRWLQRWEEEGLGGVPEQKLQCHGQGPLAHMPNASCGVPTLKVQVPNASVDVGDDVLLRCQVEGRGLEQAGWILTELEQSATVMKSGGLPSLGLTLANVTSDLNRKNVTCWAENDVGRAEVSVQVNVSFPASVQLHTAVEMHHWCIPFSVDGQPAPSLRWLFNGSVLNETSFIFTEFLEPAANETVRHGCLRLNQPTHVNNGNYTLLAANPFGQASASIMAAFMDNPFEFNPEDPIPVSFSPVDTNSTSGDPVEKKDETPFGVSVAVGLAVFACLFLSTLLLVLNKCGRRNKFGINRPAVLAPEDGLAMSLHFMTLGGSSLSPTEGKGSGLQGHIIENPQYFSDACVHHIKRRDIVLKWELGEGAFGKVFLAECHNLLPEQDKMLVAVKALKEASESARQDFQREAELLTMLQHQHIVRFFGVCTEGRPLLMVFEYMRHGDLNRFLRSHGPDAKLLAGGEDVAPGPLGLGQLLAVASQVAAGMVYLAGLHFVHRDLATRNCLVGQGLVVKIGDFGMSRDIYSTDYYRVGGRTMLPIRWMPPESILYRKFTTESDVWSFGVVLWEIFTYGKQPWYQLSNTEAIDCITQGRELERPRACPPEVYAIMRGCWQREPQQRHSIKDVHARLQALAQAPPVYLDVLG
The following applies: TRKA, [ATP] 100 µM, compound 10 uM; for remaining activity at 10 µM: read-out: % Enzyme Activity (relative to DMSO controls).

For experiment [10], the target named is T10, 382 unique human kinases (Homo sapiens, UniProt P51812, L608F).
T10 construct: purchased Reaction Biology (HotSpot contract assay)
T10 sequence (P51812 whole entry L608F): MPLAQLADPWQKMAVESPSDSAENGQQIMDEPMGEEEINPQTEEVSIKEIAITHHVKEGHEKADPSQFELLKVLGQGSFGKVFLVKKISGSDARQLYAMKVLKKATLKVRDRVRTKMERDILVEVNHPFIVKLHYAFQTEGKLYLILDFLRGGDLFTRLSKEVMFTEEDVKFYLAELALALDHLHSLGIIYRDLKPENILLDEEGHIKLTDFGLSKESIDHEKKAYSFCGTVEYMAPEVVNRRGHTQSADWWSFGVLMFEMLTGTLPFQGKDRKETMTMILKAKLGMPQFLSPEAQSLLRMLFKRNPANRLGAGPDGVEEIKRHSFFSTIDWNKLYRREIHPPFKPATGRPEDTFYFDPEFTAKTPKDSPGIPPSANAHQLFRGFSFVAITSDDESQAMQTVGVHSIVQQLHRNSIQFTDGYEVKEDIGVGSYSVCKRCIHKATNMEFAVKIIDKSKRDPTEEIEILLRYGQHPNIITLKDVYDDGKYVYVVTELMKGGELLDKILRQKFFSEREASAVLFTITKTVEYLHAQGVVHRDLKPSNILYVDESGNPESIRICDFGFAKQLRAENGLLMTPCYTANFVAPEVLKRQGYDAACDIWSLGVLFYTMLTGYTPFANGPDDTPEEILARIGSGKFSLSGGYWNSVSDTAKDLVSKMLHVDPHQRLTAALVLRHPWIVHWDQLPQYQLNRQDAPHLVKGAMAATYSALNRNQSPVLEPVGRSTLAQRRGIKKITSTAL
The settings on record: RSK2 (L608F), [ATP] 10 µM, compound 10 uM; for remaining activity at 10 µM: read-out: % Enzyme Activity (relative to DMSO controls).

Experiment [11] has as its target T11, 382 unique human kinases (Homo sapiens, UniProt P54762).
T11 construct: purchased Reaction Biology (HotSpot contract assay)
T11 sequence (P54762 18-984): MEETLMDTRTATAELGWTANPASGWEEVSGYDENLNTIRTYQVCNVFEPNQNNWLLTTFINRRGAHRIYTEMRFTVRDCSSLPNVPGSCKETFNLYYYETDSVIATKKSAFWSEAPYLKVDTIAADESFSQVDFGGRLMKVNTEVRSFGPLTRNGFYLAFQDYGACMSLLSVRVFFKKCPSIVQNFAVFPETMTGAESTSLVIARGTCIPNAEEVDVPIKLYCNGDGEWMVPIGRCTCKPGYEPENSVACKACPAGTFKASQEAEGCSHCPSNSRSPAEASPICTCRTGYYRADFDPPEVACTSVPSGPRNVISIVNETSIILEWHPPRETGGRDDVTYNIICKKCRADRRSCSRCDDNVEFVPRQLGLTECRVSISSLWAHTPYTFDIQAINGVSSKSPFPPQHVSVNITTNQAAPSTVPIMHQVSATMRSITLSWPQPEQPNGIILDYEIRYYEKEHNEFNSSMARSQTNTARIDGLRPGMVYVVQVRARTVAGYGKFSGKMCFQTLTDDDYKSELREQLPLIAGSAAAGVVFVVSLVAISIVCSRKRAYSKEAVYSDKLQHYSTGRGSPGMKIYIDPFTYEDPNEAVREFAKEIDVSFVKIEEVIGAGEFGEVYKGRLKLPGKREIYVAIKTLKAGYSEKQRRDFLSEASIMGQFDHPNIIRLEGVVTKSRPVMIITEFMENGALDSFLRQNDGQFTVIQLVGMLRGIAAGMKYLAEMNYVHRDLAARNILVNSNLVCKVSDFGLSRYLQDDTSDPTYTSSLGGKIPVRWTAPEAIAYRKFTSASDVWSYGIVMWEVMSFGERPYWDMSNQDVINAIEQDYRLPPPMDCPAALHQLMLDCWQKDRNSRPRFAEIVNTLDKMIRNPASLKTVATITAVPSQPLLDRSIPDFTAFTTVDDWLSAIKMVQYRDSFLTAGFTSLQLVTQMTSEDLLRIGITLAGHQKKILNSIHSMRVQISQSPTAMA
The following applies: EPHB1, [ATP] 100 µM, compound 10 uM; for remaining activity at 10 µM: read-out: % Enzyme Activity (relative to DMSO controls).

[12] abbreviates: kinase AMPK(A2/B1/G1), compound 10 uM.
Setting [13] is: kinase AMPK(A2/B2/G1), compound 10 uM.
[14] abbreviates: kinase AMPK(A2/B2/G2), compound 10 uM.

Each structure is given as a SMILES string. Like-named read-outs stand apart in the source and are kept apart here.

T2 sequence (Q9Y4K4 whole entry): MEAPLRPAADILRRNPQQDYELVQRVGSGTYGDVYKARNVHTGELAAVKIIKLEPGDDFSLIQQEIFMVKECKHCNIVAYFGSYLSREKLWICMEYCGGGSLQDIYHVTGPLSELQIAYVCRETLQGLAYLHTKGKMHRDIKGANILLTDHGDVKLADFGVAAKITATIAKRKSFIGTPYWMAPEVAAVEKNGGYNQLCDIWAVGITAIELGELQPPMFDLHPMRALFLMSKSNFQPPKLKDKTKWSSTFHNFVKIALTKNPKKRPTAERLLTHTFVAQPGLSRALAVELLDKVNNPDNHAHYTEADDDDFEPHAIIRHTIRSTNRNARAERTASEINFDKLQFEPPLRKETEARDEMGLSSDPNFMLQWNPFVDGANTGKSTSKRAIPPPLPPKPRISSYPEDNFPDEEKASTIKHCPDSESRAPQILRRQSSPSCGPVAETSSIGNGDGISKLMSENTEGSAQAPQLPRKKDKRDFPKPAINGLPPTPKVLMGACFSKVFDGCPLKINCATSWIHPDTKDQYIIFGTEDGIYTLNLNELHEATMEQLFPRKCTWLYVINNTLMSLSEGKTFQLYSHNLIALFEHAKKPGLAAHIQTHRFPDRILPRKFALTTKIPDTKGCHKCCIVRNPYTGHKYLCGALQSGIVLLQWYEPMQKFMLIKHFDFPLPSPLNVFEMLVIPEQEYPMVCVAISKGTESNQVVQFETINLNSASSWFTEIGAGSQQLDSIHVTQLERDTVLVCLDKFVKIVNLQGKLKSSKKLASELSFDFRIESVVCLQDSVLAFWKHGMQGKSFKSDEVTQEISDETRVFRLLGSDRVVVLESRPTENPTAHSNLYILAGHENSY
T1 sequence (Q96RR4 whole entry): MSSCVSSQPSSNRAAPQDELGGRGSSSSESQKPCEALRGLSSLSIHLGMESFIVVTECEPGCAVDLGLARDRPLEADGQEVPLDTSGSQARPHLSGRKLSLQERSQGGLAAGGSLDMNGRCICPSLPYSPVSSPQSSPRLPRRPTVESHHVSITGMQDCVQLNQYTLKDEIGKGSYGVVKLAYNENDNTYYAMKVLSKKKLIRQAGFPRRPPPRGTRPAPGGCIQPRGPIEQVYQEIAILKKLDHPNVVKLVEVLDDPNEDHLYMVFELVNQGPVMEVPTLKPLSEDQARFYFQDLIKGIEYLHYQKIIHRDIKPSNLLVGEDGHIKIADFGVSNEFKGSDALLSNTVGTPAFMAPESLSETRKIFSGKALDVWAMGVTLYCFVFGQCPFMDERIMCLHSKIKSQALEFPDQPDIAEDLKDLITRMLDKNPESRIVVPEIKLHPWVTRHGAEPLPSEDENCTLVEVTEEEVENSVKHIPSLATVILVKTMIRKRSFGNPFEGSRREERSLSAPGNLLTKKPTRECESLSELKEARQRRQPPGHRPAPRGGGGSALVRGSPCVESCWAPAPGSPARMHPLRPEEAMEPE
T4 sequence (O75460 19-977): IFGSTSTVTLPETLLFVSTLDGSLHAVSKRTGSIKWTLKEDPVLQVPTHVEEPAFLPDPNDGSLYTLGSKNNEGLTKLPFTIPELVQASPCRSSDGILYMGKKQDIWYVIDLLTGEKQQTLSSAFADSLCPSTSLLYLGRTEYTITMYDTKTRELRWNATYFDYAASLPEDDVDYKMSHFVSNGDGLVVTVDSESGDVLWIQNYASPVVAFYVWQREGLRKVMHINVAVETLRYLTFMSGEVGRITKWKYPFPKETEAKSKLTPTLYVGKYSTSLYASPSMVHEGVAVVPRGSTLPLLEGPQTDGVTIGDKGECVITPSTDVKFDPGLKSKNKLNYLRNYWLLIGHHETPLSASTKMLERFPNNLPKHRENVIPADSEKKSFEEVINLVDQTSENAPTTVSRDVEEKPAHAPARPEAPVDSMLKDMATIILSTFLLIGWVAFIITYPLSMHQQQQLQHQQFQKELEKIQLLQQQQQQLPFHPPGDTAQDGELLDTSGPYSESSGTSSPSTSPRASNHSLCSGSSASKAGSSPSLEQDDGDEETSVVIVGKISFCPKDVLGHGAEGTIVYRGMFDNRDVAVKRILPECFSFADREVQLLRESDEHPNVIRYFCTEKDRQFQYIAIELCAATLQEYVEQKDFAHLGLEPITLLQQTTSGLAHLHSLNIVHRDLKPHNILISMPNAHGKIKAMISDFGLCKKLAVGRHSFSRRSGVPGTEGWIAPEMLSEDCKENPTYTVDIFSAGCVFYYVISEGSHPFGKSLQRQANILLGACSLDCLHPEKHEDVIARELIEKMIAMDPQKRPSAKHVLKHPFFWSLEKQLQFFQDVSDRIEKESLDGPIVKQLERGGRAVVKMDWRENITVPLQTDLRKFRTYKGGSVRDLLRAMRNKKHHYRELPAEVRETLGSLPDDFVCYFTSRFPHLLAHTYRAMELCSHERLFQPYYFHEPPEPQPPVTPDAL
T8 sequence (Q8N568 whole entry): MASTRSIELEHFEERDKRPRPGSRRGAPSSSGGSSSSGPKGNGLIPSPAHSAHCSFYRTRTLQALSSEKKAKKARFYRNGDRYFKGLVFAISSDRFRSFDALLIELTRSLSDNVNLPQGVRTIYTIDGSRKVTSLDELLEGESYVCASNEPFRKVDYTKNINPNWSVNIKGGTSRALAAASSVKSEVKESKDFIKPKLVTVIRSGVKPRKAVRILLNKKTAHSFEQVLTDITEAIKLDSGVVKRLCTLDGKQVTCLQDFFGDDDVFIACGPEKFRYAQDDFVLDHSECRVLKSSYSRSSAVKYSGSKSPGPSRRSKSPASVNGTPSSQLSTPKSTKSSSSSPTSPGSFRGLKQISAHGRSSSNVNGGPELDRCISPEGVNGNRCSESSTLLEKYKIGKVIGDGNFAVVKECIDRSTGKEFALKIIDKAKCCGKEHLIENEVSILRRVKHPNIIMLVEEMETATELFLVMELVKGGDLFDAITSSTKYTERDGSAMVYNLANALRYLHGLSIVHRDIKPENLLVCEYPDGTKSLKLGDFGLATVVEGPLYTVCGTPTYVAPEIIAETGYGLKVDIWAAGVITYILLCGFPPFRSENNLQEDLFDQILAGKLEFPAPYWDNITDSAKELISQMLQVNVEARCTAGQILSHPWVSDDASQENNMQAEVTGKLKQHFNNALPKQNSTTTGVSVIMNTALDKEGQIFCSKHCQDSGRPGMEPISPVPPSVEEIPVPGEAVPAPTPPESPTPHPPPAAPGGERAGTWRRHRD

Consider `CC(C)c1cc(-c2n[nH]c(=O)n2-c2ccc3c(ccn3C)c2)c(O)cc1O` [Ganetespib (STA9090)], for which the remaining activity at 10 µM in experiment [1] worked out at 89.7%; in experiment [2] it was 80.6%; in [3] (AMPK(A2/B2/G3), 10 uM), 65.8%; in [3] (setting [12]), 80.4%; in [3] (setting [13]) it was 82.1%; in experiment [3] (setting [14]) it was 84.6%. The remaining activity at 10 µM in experiment [4] was determined as 103%.

As for `CC(C)c1cc(-c2n[nH]c(=O)n2-c2ccc3c(ccn3C)c2)c(O)cc1O` [Ganetespib], the remaining activity at 10 µM in [5] came out at 110%; in [6], 35%; in experiment [7] it was 55.7%; in [8], 96.7%; in [9] it was 52.8%; in experiment [10], 52.5%. In experiment [11], the remaining activity at 10 µM was 36%.

In the case of `CCNC(=O)c1noc(-c2cc(C(C)C)c(O)cc2O)c1-c1ccc(CN2CCOCC2)cc1` [Luminespib (AUY-922)], the “% Enzyme Activity (relative to DMSO controls)” value in experiment [1] is on record as 109.01%; in experiment [2], 91.62%; in experiment [3] (AMPK(A2/B2/G3), 10 uM), 103.09%; in [3] (setting [12]) it was 102.86%; in experiment [3] (setting [13]), 94.15%; in experiment [3] (setting [14]) it was 96.15%. Further, the “% Enzyme Activity (relative to DMSO controls)” value in experiment [4] turned out to be 82.42%. Besides, the remaining activity at 10 µM was 110% in [1]; 93.5% in [2]; 104% in experiment [3] (AMPK(A2/B2/G3), 10 uM); 103% in [3] (setting [12]); 94.2% in experiment [3] (setting [13]); 97.4% in [3] (setting [14]). Further, the remaining activity at 10 µM in experiment [4] was 82.5%.

On to `CCNC(=O)c1noc(-c2cc(C(C)C)c(O)cc2O)c1-c1ccc(CN2CCOCC2)cc1` [Luminespib], for which the “% Enzyme Activity (relative to DMSO controls)” value in experiment [5] is 99.26%; in [6] it was 89.97%; in [7] it was 90.09%; in experiment [8], 96.30%; in experiment [9] it was 101.35%; in experiment [10], 105.75%. In experiment [11], the “% Enzyme Activity (relative to DMSO controls)” value is recorded as 90.73%. The remaining activity at 10 µM in experiment [5] worked out at 100%; in experiment [6] it was 90.7%; in experiment [7], 90.3%; in experiment [8], 97.8%; in experiment [9], 101%; in [10], 108%. Further, the remaining activity at 10 µM in experiment [11] was 92.3%.
